# Results reported in patent US20220257722A1, “COMPOSITIONS AND METHODS OF TREATING AND PREVENTING SYSTEMIC COMPLICATIONS OF ACUTE ILLNESS” (United States Government As Represented By The Department …, priority 2019, published 2022).
# Experiments:
# rat small intestine = experiment: LPS-induced small intestinal FD4 paracellular permeability in vivo (PV and arterial FD4); settings: for TDG-induced inhibitory effect on PV FD4 levels: LPS 6 hr + TDG 6 hr
# Method: LPS treatment. Animals were treated with LPS (5 mg/kg, ip) once at 9 am. For the acute experiments, the animals were fasted overnight and were treated with LPS 1, 3, or 6 hr before the anesthesia for small intestinal perfusion of FD4 as described herein. For the 24-hr experiments, the animals fed ad libitum were treated with LPS 24 hr before anesthesia induction used for the perfusion study. As a control, saline was injected ip at the corresponding time before the experiments. The animal groups were expressed as control, LPS 1 hr, LPS 3 hr, LPS 6 hr, and LPS 24 hr.
# Small intestinal perfusion. The small intestinal perfusion from the duodenum, and portal vein (PV) cannulation were prepared by the modified methods. Under isoflurane anesthesia (2%), the animal was placed […] on a recirculating heating block system (Summit Medical Systems, Bend, Oreg., USA) in order to maintain body temperature at 36-37° C. Prewarmed saline was infused via the right femoral vein at 1.08 ml/h using a Harvard infusion pump (Harvard Apparatus, Holliston, Mass., USA). The abdomen was incised, and the PV was cannulated with a polyethylene (PE)-50 tube attached with 23G needle and fixed by methylacrylate adhesive at the insertion site. The tube was filled with heparinized saline enabling repeated blood sampling. Samples of 0.2 ml PV blood were collected every 15 min, followed by flushing with 0.2 ml heparinized saline. A polyethylene tube (diameter 5 mm) filled with PBS was inserted through the forestomach and tied at 0.5 cm caudal from the pyloric ring. After bolus perfusion of 2-ml phosphate buffer saline (PBS, 10 mM, pH 7.4) into the duodenum from the tube, followed by stabilization for ˜30 min, the time was set as t=0. FD4 (0.1 mM) in 10-ml PBS was slowly perfused at t=0 min for 30 sec. Blood samples were collected into a 0.5-ml tubes containing 1-μl each of EDTA (0.5 M) and the dipeptidyl peptidase-4 (DPP4) inhibitor NVP-728 (1 mM), and immediately centrifuged at 5,000× g for 5 min, after which the plasma was stored on ice or at −80 ° C. until use. At 90 min, after collection of PV samples, arterial blood was taken from abdominal aorta, followed by euthanasia by thoracotomy.
# Appearance of FD4 into the PV and arterial plasma was assessed by fluorescence intensity measurement using a multi-mode microplate reader (Synergy-2, BioTek Instruments, Inc., Winooski, VT, USA). Fluorescence intensity in t=0 sample as background was subtracted from the fluorescence values measured in other time point samples. FD4 content was calculated according to the standard curve generated each time of measurement.
# Drug treatment for the intestinal perfusion study. The following drugs were administered at the time after LPS treatment: the GLP2R partial agonist/antagonist GLP-2(3-33) (1 mg/kg; 280 nmol/kg, ip) was given immediately after LPS treatment (0 hr after LPS treatment); GLP-2 (380 μg/kg; 100 nmol/kg, ip) was given 6 hr after LPS treatment; a stable GLP-2 analog TDG (50 μg/kg; 13.3 nmol/kg) was ip injected 0, 3, 6, or 12 hr after LPS treatment or iv injected at t=0 min just before the perfusion of FD4 solution (6 or 24 hr after LPS treatment). In acute experiments, TDG was iv injected at t=0 min (6 hr after LPS treatment) with or without the pretreatment of the selective IGF1 receptor (IGF1R) tyrosine kinase inhibitor AEW541 (0.1 mg/kg, iv), the selective EGF receptor (EGFR) tyrosine kinase inhibitor PD153035 (10 μg/kg, iv) or PG97-269 (1 mg/kg, iv) at t=−10 min, or the co-perfusion of L-NAME (0.1 mM, pf) with FD4 solution.
# rat jejunal mucosa = experiment: LPS mucosal-to-serosal transport in Ussing-chambered rat jejunal mucosa (LAL test); assay type: cell-based; settings: for OA/TCA-augmented LPS transport (t=30-45 min): mucosal LPS 10 μg/ml + OA 30 mM/TCA 0.1 mM; for OA/TCA-augmented LPS transport (t=30-45 min) / LPS transport at t=15 min (LPS alone, absence of OA/TCA): drug added 10 or 15 min before LPS; for LPS transport at t=15 min (LPS alone, absence of OA/TCA): mucosal LPS 10 μg/ml
# Method: Short-circuit current measurements in Ussing chambered preparations. Mucosa-submucosa preparations were prepared from the mid-jejunum (˜20 cm from the pyloric ring) by muscle stripping using fine forceps under a stereomicroscope. Two or four preparations were prepared from one animal. The tissue was then mounted between two hemi-sliders with an aperture=0.3 cm^2 (Physiologic Instruments, San Diego, Calif., USA). Chambers were bathed with serosal and luminal bathing solutions in a volume of 4 ml each, maintained at 37° C. using a water recirculating heating system. The serosal Krebs-Ringer solution contained (in mM) NaCl, 117; KCl, 4.7; MgCl2, 1.2; NaH2PO4, 1.2; CaCl2, 2.5; NaHCO3, 25; glucose, 11; and bubbled with 95% O2-5% CO2 to maintain pH at 7.4. The luminal bathing solution contained NaCl, 136; KCl, 2.6; CaCl2, 1.8; HEPES, 10 (pH 7.0); mannitol, 11; and bubbled with 100% O2. The tissues were short-circuited by a voltage clamp (VCC MC6, Physiologic Instruments) at zero potential difference with automatic compensation for solution resistance. Short-circuit current (Isc) was continuously measured with tissue conductance (Gt) and TEER (Ω·cm^2) determined every 20 sec in order to assess the tissue integrity during the LPS and lipid exposure. The current was recorded by the DataQ system (Physiologic Instruments). IND (10 μM) was added to the serosal bath to eliminate the effects of endogenous prostaglandin production. The tissues were stabilized for ˜30 min before the addition of test chemicals.
# LPS movement from mucosal to serosal solution. LPS movement m-to-s was assessed using a LAL test kit (Pierce Chromogenic Endotoxin Quant Kit, Pierce Biotechnology, Rockford, Ill., USA), which eliminates non-specific detection of (1,3)-β-D-glucan, then reduces false-positive LPS measurements. After tissue stabilization, time was set as t=0 min. Fifty μl of the serosal solution was collected at 0 min as a blank sample, followed by collection at t=15, 30 and 45 min. At t=0 min, LPS (10 μg/ml) was added into the mucosal solution. Vehicle (PBS alone), TCA alone (0.1 mM) in PBS or OA (3, 10, 30 mM) with TCA (0.1 mM) in PBS was added into the mucosal solution at t=15 min. The tissues were pretreated with drugs 10 or 15 min before the addition of LPS (i.e. at t=−10 or −15 min). The collected serosal solutions were kept at −80° C. until use. LPS content in the serosal solutions was measured with the LAL test according to the manufacturer's protocol. The value of background at t=0 min was subtracted and the serosal LPS appearance was expressed as Δ[LPS] (EU/ml). In some experiments, FITC-LPS (10 μg/ml) was used instead of LPS. Serosal FITC-LPS content was assessed by FITC fluorescence intensity measurement using a multi-mode microplate reader (Synergy-2, BioTek Instruments, Inc., Winooski, Vt., USA). To detect macromolecule m-to-s movement across the mucosa, FD4 (0.1 mM) was applied into the mucosal bath and serosal FD4 content was assessed by FITC fluorescence intensity measurement.
# Ussing chamber study: drug treatment. The following drugs were pretreated by addition to the mucosal (m) or serosal (s) bath 10 or 15 min before LPS addition to the mucosal bath: the lipid raft inhibitor MβCD (1 mM, m), the CD36 inhibitor SSO (0.1 mM, m), the muscarinic agonist CCh (10 μM, s), a competitive substrate for IAP (IAP inhibitor) GP (10 mM, m) (47), GLP-2 (100 nM, s), the dipeptidyl peptidase-4 (DPP4) inhibitor NVP-728 (10 μM, s) (36), the stable GLP-2 analog TDG (100 nM) (13), the insulin-like growth factor-1 (IGF-1) receptor tyrosine kinase inhibitor NVP-AEW-541 (10 μM, s) (22), the epidermal growth factor (EGF) tyrosine kinase inhibitor PD153035 (1 μM, s) (6), the nitric oxide (NO) synthase (NOS) inhibitor L-NAME (0.1 mM, s) and the selective VPAC1 antagonist PG97-269 (1 μM) (26).
# [1] = pig, in vivo; cited from earlier work
# [2] = inhibitor iv at t=-10 min or co-perfused
# [3] = LPS 6 hr model, GLP-2(3-33) 1 mg/kg ip immediately after LPS
# [4] = inhibitor serosal before GLP-2 + NVP-728
# [5] = LPS 24 hr model, GLP-2 380 μg/kg ip 6 hr after LPS
compound,measurement,setting,value
Nc1ncnc2c1c(-c1cccc(OCc3ccccc3)c1)cn2[C@H]1C[C@@H](CN2CCC2)C1 [NVP-AEW-541],TDG-induced inhibitory effect on PV FD4 levels,rat small intestine; [2],no effect
"GLP-2(3-33): GLP-2 receptor partial agonist/antagonist; truncated GLP-2 peptide missing the first 2 amino acids (DGSFSDEMNTILDNLATRDFINWLIQTKITD; Glucagon-like peptide 2; UniProt P06883 148-178, looked up, fragment)",OA/TCA-augmented LPS transport (t=30-45 min),rat jejunal mucosa,no effect
same,"LPS transport at t=15 min (LPS alone, absence of OA/TCA)",rat jejunal mucosa,no effect
same,PV FD4 levels at t=60-90 min,rat small intestine; [3],further increased
same,arterial FD4 levels at t=90 min,rat small intestine; [3],further increased
COc1cc2ncnc(Nc3cccc(Br)c3)c2cc1OC [PD153035],"amount of LPS transport after addition of OA/TCA, in presence of GLP-2 + NVP-728",rat jejunal mucosa; [4],further increased
same,"amount of LPS transport at t=15 min (prior to OA/TCA exposure), in presence of GLP-2 + NVP-728",rat jejunal mucosa; [4],increased
same,TDG-induced inhibitory effect on PV FD4 levels,rat small intestine; [2],no effect
same,Arterial FD4 levels in LPS 6 hr + TDG 6 hr rats,"rat small intestine; t=90 min, inhibitor iv at t=-10 min or co-perfused",not affected
"C[N+](C)(C)CCOC(N)=O [CCh, carbachol]",OA/TCA-augmented LPS transport (t=30-45 min),rat jejunal mucosa,further increased
same,"LPS transport at t=15 min (LPS alone, absence of OA/TCA)",rat jejunal mucosa,increased
N#Cc1ccc(NCCNCC(=O)N2CCC[C@H]2C#N)nc1 [NVP-728],OA/TCA-augmented LPS transport (t=30-45 min),rat jejunal mucosa,no effect
same,"LPS transport at t=15 min (LPS alone, absence of OA/TCA)",rat jejunal mucosa,no effect
"O=P(O)(O)OCC(O)CO (stereo not drawn) [GP, glycerol phosphate]",OA/TCA-augmented LPS transport (t=30-45 min),rat jejunal mucosa,further increased
same,"LPS transport at t=15 min (LPS alone, absence of OA/TCA)",rat jejunal mucosa,no effect
HADGSFSDEMNTILDNLATRDFINWLIQTKITD [GLP-2],"LPS transport during OA/TCA exposure period, GLP-2 with NVP-728","rat jejunal mucosa; GLP-2 100 nM + DPP4 inhibitor NVP-728 10 μM, serosal",inhibited
same,OA/TCA-augmented LPS transport (t=30-45 min),rat jejunal mucosa,no effect
same,"LPS transport at t=15 min (LPS alone, absence of OA/TCA)",rat jejunal mucosa,no effect
same,PV FD4 levels,rat small intestine; [5],reduced
same,arterial FD4 levels,rat small intestine; [5],reduced
same,t1/2 of exogenous GLP-2,[1],~7 min
